Test results published in patent US12343326B2, “Psychoactive medicines and their use for treating psychiatric and neurological conditions and disorders” (Transcend Therapeutics, Inc., priority 2021, dated 2025).

Columns and labels:
Experiment in all cases: β-arrestin based GPCR screen (PathHunter / GPCRmax), antagonist mode
168 GPCRs [1] = molecular target: T1, 168 GPCRs (Homo sapiens, UniProt P0DMS8); details: ADORA3, Antagonist
T1 sequence (P0DMS8 1-318): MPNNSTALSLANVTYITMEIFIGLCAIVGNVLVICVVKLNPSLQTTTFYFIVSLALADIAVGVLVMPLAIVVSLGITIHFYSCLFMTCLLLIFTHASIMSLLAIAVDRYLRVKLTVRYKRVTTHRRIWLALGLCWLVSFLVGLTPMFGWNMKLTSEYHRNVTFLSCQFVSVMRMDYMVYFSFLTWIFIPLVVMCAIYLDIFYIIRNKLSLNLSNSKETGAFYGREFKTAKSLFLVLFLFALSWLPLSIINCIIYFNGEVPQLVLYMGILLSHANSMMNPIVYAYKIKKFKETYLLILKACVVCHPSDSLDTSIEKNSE

168 GPCRs [2] = molecular target: 168 GPCRs (Homo sapiens, UniProt P16473); details: TSHR(L)
168 GPCRs [3] = molecular target: 168 GPCRs (Homo sapiens, UniProt P20309); details: CHRM3, Antagonist
168 GPCRs [4] = molecular target: 168 GPCRs (Homo sapiens, UniProt P21554)
168 GPCRs [5] = molecular target: 168 GPCRs (Homo sapiens, UniProt P25116); details: F2F, Antagonist mode, 10 uM
168 GPCRs [6] = molecular target: 168 GPCRs (Homo sapiens, UniProt P30559); details: OXTR
168 GPCRs [7] = molecular target: T2, 168 GPCRs (Homo sapiens, UniProt P30939); details: HTR1F
T2 sequence (P30939 1-366): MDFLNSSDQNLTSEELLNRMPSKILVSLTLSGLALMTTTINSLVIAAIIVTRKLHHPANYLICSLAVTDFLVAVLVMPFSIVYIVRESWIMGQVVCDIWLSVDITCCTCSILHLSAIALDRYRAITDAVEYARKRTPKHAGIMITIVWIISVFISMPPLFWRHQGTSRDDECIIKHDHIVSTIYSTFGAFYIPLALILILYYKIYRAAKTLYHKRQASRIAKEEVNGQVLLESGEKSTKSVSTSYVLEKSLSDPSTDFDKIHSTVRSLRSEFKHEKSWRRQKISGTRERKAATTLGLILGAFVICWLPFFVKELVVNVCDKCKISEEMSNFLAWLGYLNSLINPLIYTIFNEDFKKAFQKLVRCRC

168 GPCRs [8] = molecular target: 168 GPCRs (Homo sapiens, UniProt P34972)
168 GPCRs [9] = molecular target: 168 GPCRs (Homo sapiens, UniProt P47211)
168 GPCRs [10] = molecular target: 168 GPCRs (Homo sapiens, UniProt P48546); details: GIPR
168 GPCRs [11] = molecular target: 168 GPCRs (Homo sapiens, UniProt P51677); details: CCR3, Antagonist
168 GPCRs [12] = molecular target: 168 GPCRs (Homo sapiens, UniProt P55085)
168 GPCRs [13] = molecular target: 168 GPCRs (Homo sapiens, UniProt Q01726); details: MC1R
168 GPCRs [14] = molecular target: 168 GPCRs (Homo sapiens, UniProt Q15077)
168 GPCRs [15] = molecular target: 168 GPCRs (Homo sapiens, UniProt Q969F8); details: KISS1R
168 GPCRs [16] = molecular target: 168 GPCRs (Homo sapiens, UniProt Q96P65)
168 GPCRs [17] = molecular target: 168 GPCRs (Homo sapiens, UniProt Q9P296); details: C5L2, Antagonist
168 GPCRs [18] = molecular target: 168 GPCRs (Homo sapiens, UniProt Q9UBY5)
168 GPCRs (Homo sapiens, UniProt Q9UBY5), sequence (Q9UBY5 whole entry): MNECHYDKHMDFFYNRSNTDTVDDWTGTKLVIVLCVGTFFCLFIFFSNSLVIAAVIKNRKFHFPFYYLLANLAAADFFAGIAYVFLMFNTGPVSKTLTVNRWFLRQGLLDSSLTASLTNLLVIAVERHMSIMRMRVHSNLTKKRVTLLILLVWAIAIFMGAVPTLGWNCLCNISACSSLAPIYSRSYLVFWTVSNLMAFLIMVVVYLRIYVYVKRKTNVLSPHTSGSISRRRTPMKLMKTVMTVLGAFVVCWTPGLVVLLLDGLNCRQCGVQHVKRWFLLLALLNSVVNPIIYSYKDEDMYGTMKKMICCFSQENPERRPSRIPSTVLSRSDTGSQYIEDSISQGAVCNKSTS

168 GPCRs (Homo sapiens, UniProt P34972), sequence (P34972 whole entry): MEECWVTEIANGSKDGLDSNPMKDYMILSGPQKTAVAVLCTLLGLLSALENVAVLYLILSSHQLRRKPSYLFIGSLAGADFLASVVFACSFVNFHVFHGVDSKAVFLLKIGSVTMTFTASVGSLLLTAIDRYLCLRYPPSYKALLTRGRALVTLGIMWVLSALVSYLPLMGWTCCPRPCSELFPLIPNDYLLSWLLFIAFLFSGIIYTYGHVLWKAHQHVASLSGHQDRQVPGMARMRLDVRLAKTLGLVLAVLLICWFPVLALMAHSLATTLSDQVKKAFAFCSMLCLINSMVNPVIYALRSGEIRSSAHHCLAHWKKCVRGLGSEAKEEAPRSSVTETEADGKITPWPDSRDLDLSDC
168 GPCRs (Homo sapiens, UniProt P55085), sequence (P55085 26-397): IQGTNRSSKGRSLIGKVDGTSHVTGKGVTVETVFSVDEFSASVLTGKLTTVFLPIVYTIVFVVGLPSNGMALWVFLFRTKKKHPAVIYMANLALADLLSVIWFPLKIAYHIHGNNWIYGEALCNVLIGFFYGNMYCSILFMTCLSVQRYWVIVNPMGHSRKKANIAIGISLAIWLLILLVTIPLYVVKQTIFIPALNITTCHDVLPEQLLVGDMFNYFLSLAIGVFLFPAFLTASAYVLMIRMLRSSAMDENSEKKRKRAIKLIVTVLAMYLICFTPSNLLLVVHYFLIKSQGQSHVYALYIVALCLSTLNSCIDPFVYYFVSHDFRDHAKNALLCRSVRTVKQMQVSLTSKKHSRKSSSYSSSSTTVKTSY
168 GPCRs (Homo sapiens, UniProt P16473), sequence (P16473 21-764): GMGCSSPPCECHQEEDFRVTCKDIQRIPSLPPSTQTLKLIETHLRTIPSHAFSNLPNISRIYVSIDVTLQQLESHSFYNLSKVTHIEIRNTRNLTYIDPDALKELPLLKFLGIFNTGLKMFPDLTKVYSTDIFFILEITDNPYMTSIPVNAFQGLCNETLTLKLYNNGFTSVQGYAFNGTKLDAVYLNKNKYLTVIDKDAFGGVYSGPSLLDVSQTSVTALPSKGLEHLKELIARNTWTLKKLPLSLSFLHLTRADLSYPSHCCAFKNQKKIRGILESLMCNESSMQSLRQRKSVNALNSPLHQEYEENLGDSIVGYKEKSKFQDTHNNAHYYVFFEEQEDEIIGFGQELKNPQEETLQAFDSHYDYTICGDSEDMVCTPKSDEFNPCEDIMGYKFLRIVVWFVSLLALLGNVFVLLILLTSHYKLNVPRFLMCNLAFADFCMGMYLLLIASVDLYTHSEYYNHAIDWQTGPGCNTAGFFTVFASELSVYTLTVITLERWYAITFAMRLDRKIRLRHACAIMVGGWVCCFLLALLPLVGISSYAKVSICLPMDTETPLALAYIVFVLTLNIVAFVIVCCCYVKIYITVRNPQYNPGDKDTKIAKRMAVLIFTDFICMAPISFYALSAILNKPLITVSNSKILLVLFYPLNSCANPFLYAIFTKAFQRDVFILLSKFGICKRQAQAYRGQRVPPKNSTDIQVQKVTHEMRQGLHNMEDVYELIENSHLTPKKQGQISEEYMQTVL
168 GPCRs (Homo sapiens, UniProt Q01726), sequence (Q01726 whole entry): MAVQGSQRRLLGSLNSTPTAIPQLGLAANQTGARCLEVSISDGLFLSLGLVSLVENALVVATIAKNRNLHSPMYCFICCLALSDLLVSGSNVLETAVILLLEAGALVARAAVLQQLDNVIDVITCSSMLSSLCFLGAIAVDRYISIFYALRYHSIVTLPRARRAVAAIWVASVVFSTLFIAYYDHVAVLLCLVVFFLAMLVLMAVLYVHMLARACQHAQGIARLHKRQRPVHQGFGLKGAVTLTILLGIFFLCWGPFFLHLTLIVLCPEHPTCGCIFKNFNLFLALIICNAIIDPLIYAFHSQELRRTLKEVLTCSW
168 GPCRs (Homo sapiens, UniProt P47211), sequence (P47211 whole entry): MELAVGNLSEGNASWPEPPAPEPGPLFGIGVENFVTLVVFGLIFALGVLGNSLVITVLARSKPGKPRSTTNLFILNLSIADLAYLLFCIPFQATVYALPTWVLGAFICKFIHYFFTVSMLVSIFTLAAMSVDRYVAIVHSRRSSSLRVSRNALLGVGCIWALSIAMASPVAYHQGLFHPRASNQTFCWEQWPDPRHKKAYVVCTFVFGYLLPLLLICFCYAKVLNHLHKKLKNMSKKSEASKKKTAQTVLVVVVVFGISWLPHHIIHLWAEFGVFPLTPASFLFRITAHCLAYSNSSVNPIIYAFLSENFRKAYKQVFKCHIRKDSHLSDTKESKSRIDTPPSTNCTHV
168 GPCRs (Homo sapiens, UniProt Q96P65), sequence (Q96P65 whole entry): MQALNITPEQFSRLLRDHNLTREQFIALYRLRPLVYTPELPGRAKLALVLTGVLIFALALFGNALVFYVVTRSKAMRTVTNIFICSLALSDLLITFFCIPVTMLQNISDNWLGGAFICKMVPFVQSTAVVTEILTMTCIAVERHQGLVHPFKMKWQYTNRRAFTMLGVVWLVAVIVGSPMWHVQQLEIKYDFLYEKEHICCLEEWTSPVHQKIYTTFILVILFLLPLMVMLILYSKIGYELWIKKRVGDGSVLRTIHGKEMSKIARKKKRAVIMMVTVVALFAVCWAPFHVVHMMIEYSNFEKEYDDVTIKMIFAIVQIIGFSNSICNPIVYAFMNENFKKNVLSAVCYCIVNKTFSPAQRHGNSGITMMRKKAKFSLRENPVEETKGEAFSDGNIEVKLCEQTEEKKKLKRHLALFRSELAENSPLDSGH
168 GPCRs (Homo sapiens, UniProt P30559), sequence (P30559 whole entry): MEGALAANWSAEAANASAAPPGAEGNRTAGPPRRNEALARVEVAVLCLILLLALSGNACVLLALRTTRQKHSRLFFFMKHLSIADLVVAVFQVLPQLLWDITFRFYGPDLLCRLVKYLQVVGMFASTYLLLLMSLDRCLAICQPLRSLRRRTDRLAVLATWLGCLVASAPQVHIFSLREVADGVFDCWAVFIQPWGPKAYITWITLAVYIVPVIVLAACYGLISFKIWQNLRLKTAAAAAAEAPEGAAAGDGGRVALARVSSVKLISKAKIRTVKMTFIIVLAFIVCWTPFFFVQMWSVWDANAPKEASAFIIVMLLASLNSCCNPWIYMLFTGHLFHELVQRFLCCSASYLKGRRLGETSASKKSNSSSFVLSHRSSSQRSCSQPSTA
168 GPCRs (Homo sapiens, UniProt P51677), sequence (P51677 whole entry): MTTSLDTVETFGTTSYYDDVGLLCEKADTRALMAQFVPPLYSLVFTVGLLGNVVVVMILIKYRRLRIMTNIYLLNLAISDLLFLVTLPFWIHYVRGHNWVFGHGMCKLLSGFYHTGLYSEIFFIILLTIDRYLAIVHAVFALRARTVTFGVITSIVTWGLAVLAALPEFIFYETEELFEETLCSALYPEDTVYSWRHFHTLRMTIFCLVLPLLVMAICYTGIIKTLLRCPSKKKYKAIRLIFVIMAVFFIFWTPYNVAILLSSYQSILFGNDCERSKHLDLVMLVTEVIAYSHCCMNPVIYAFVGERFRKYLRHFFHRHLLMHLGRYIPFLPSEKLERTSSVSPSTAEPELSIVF
168 GPCRs (Homo sapiens, UniProt P21554), sequence (P21554 whole entry): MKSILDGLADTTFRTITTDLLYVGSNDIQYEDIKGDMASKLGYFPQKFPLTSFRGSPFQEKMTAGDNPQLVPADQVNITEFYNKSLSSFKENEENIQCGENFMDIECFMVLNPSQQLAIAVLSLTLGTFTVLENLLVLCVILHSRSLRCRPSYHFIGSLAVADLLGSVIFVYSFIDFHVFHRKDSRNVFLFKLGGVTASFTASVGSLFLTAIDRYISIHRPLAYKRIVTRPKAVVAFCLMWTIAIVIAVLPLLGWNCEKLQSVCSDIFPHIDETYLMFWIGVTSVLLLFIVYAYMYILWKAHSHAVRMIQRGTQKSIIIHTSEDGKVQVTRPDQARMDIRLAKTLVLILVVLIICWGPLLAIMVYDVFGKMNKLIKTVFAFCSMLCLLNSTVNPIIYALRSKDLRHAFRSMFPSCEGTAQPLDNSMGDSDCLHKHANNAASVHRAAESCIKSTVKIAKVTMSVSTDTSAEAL
168 GPCRs (Homo sapiens, UniProt Q9P296), sequence (Q9P296 whole entry): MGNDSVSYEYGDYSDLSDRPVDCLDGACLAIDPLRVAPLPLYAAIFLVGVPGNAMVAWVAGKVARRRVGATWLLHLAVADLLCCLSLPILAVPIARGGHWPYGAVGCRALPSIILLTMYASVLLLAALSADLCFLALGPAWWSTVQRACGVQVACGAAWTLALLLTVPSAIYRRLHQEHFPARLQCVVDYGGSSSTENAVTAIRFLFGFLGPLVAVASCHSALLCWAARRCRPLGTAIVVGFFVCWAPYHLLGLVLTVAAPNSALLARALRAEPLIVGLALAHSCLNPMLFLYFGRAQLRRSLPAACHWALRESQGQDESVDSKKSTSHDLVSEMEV
168 GPCRs (Homo sapiens, UniProt P48546), sequence (P48546 22-466): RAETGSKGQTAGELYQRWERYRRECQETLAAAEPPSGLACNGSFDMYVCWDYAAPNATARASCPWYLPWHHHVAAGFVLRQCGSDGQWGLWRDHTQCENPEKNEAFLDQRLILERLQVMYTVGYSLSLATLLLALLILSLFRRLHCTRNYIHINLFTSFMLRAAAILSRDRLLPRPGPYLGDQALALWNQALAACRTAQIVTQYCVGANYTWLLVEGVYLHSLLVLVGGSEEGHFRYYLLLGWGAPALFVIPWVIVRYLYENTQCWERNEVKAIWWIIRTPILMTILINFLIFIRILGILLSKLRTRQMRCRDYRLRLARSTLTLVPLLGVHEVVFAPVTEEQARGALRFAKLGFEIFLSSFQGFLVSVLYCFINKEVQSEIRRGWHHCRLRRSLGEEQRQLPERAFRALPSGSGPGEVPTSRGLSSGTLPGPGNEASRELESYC

## CNC(C)C(=O)c1ccc2c(c1)OCO2 (centres unmarked) [methylone, 3,4-methylenedioxy-N-methylcathinone]
168 GPCRs [1]; 1 uM
  activity at 1 µM: 11.3%
168 GPCRs [1]; 10 uM
  activity at 10 µM: 7.7%
168 GPCRs [2]; Antagonist mode, 10 uM
  activity at 10 µM: -6.6%
168 GPCRs [2]; Antagonist, 1 uM
  activity at 1 µM: 6.1%
168 GPCRs [3]; 1 uM
  activity at 1 µM: -5.5%
168 GPCRs [3]; 10 uM
  activity at 10 µM: 14.6%
168 GPCRs [4]; CNR1, Antagonist mode, 10 uM
  activity at 10 µM: -17.1%
168 GPCRs [4]; CNR1, Antagonist, 1 uM
  activity at 1 µM: -3.5%
168 GPCRs [5]
  activity at 10 µM: -11.4%
168 GPCRs [6]; Antagonist mode, 10 uM
  activity at 10 µM: 6.9%
168 GPCRs [6]; Antagonist, 1 uM
  activity at 1 µM: 12.7%
168 GPCRs [7]; Antagonist mode, 10 uM
  activity at 10 µM: 9.2%
168 GPCRs [7]; Antagonist, 1 uM
  activity at 1 µM: 14.4%
168 GPCRs [8]; CNR2, Antagonist mode, 10 uM
  activity at 10 µM: -3.2%
168 GPCRs [8]; CNR2, Antagonist, 1 uM
  activity at 1 µM: 3.6%
168 GPCRs [9]; GALR1, Antagonist mode, 10 uM
  activity at 10 µM: 6.8%
168 GPCRs [9]; GALR1, Antagonist, 1 uM
  activity at 1 µM: 7.1%
168 GPCRs [10]; Antagonist mode, 10 uM
  activity at 10 µM: -5.1%
168 GPCRs [10]; Antagonist, 1 uM
  activity at 1 µM: -1%
168 GPCRs [11]; 1 uM
  activity at 1 µM: -11.8%
168 GPCRs [11]; 10 uM
  activity at 10 µM: -4%
168 GPCRs [12]; F2RL1, Antagonist mode, 10 uM
  activity at 10 µM: 16.2%
168 GPCRs [12]; F2RL1, Antagonist, 1 uM
  activity at 1 µM: -26.8%
168 GPCRs [13]; Antagonist mode, 10 uM
  activity at 10 µM: 15.9%
168 GPCRs [13]; Antagonist, 1 uM
  activity at 1 µM: 20.1%
168 GPCRs [14]; P2RY6, Antagonist mode, 10 uM
  activity at 10 µM: 2.6%
168 GPCRs [14]; P2RY6, Antagonist, 1 uM
  activity at 1 µM: 6.5%
168 GPCRs [15]; Antagonist mode, 10 uM
  activity at 10 µM: 14.5%
168 GPCRs [15]; Antagonist, 1 uM
  activity at 1 µM: 28.7%
168 GPCRs [16]; GPR103, Antagonist mode, 10 uM
  activity at 10 µM: 7%
168 GPCRs [16]; GPR103, Antagonist, 1 uM
  activity at 1 µM: 4.1%
168 GPCRs [17]; 1 uM
  activity at 1 µM: 10%
168 GPCRs [17]; 10 uM
  activity at 10 µM: 1.4%
168 GPCRs [18]; EDG7, Antagonist mode, 10 uM
  activity at 10 µM: 17.9%
168 GPCRs [18]; EDG7, Antagonist, 1 uM
  activity at 1 µM: 19.5%
